Measurements reported in patent publication USRE49735E1 (BRISTOL-MYERS SQUIBB COMPANY, priority 2010, dated 2023).
pEC50: −log10 of the molar value. Values joined by “and” are separate entries in the source; they are usually repeats but may differ in a detail not shown here. Equal entries are not always repeated.

Each compound was assayed against human mGluR5A (Homo sapiens, UniProt P41594) (assay: mGluR5 FLIPR Assay). Conditions: positive modulator activity; HEK293 (ZF) cells with human mGluR5A and rat GLAST; Ca++ response to ~EC10 glutamate.
human mGluR5A, sequence (P41594 21-1180 isoform P41594-2): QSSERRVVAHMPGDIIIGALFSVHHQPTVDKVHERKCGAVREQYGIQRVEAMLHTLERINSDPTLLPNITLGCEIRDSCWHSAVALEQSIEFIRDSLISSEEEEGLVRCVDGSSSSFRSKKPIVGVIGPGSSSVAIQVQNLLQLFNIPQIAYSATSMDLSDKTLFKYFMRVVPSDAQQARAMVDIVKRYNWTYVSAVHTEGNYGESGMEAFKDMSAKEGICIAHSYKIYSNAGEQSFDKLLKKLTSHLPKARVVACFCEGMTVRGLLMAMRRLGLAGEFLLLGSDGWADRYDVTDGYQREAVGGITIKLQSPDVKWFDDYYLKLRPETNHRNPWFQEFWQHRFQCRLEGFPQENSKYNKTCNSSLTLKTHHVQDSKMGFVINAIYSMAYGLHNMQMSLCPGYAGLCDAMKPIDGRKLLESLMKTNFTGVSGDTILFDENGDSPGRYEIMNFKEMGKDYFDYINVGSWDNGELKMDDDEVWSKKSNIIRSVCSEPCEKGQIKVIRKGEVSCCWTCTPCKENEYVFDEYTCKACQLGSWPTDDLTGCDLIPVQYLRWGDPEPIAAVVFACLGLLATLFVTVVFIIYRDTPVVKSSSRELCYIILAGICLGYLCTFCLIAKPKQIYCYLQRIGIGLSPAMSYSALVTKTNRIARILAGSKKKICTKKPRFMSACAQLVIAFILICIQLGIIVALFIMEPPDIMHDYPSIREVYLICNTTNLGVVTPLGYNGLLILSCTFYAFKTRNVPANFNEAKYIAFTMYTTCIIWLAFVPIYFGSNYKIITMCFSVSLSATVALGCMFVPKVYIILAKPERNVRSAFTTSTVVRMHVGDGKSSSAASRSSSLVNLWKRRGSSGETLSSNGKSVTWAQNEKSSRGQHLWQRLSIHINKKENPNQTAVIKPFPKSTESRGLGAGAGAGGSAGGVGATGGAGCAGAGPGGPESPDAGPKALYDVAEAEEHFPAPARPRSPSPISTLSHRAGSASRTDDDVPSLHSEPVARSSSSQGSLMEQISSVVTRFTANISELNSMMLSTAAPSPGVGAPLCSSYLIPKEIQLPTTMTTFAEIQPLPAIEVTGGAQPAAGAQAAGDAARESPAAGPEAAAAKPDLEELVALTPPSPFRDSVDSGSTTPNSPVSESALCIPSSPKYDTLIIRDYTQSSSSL
Type: cell-based
`O=C1N[C@H](c2ccnc(C#Cc3ccccc3)n2)[C@@H](c2cccc(F)c2)O1` [Example 275] was tested, and the pEC50 was over 7.00.
In the case of `O=C1N[C@H](c2cncc(C#Cc3ccccc3)c2)[C@@H](c2ccc(F)c(F)c2F)O1` [Example 294], the pEC50 was > 7.00 and 8.57.
`COc1cccc([C@H]2OC(=O)N[C@@H]2c2cccc(C#Cc3cncc(F)c3)c2)c1` [Example 81, (4R,5R)-4-(3-((5-Fluoropyridin-3-yl)ethynyl)phenyl)-5-(3-methoxyphenyl)oxazolidin-2-one] showed a pEC50 of over 7.00.
With `COc1ccc(C#Cc2cncc([C@H]3NC(=O)O[C@@H]3c3cc(F)ccc3F)c2)cc1` [Example 382, (4R,5R)-5-(2,5-difluorophenyl)-4-(5-((4-methoxyphenyl)ethynyl)pyridin-3-yl)oxazolidin-2-one] the pEC50 was 6.00 to 7.00 and 6.27.
In the case of `O=C1N[C@H](c2nccc(C#Cc3ccccc3)n2)[C@@H](c2cccc(F)c2)O1` [Example 273], the pEC50 was under 5.52.
With `O=C1N[C@H](c2cccc(C#Cc3ncccc3F)n2)[C@@H](c2ccc(F)cc2)O1` (single isomer, unassigned) [Example 370] the pEC50 was > 7.00 and 7.50.
`O=C1N[C@H](c2cc(C#Cc3ccccc3Cl)ccn2)[C@@H](c2ccc(F)cc2)O1` (single isomer, unassigned) [Example 351] showed a pEC50 of 6.00 to 7.00.
`O=C1N[C@H](c2cncc(C#Cc3ccccc3)c2)[C@@H](c2ccccc2F)O1` [Example 404, (4R,5R)-5-(2-Fluorophenyl)-4-(5-(phenylethynyl)pyridin-3-yl)oxazolidin-2-one] was tested, and the pEC50 was over 7.00.
Work on `Cc1noc([C@H]2OC(=O)N[C@@H]2c2cccc(C#Cc3ccccc3)c2)n1` [Example 166] yielded a pEC50 of under 6.00.
For `O=C1N[C@H](c2cccc(C#Cc3ccccc3)c2)[C@@H](c2cnccn2)O1` [Example 246], the pEC50 was under 6.00.
Work on `COc1cccc([C@H]2OC(=O)N[C@@H]2c2cccc(C#Cc3ccnc(C)c3)c2)c1` [Example 60, (4R,5R)-5-(3-Methoxyphenyl)-4-(3-((2-methylpyridin-4-yl)ethnyl)phenyl)oxazolidin-2-one] yielded a pEC50 of under 6.00.
Work on `C[C@@]1(c2cncc(C#Cc3ncccc3F)c2)NC(=O)O[C@H]1c1ccc(F)cc1` (single isomer, unassigned) [Example 344] yielded a pEC50 of over 7.00.
For `O=C1N[C@H](c2cccc(C#Cc3ccccc3)c2)[C@@H](c2nc(-c3ccccn3)no2)O1` [Example 162], the pEC50 was under 6.00.
Work on `O=C1N[C@@H](c2cccc(C#Cc3ccccc3)n2)[C@H](c2ccc(F)cc2)O1` (single isomer, unassigned) [Example 136] yielded a pEC50 of under 6.00.
With `O=C1NC(c2cccc(C#Cc3ccccc3)c2)C(c2cccc(F)c2)O1` (stereo not drawn) [Example 113] the pEC50 was 6.00 to 7.00.
In the case of `O=C1N[C@@H](c2cncc(C#Cc3ccccc3)c2)[C@@H](c2cccc(Cl)c2Cl)O1` (single isomer, unassigned) [Example 332], the pEC50 was under 6.00.
In the case of `O=C1N[C@H](c2cncc(C#Cc3ccccc3)c2)[C@@H](c2ccc(F)cc2)O1` (single isomer, unassigned) [Example 41], the pEC50 was over 7.00.
Work on `C[C@@]1(c2ccc(F)cc2)OC(=O)N[C@H]1c1cncc(C#Cc2ccccc2)c1` [Example 204] yielded a pEC50 of over 7.00.
`O=C1N[C@H](c2cc(C#Cc3ccccn3)cnc2F)[C@@H](c2ccc(F)cc2)O1` [Example 156, (4R,5R)-4-(2-Fluoro-5-(pyridin-2-ylethynyl)pyridin-3-yl)-5-(4-fluorophenyl)oxazolidin-2-one] showed a pEC50 of over 7.00.
For `C[C@]1(c2ccc(F)cc2)OC(=O)N[C@H]1c1cncc(C#Cc2ccccc2)c1` [Example 206], the pEC50 was 6.00 to 7.00.
`O=C1N[C@@H](c2cncc(C#Cc3ccccc3)c2)[C@@H](c2ccncn2)O1` (single isomer, unassigned) [Example 319] showed a pEC50 of under 6.00.
With `O=C1N[C@H](c2cncc(C#Cc3ccccc3)c2)[C@@H](c2ccc(F)cc2F)O1` [Example 179] the pEC50 was over 7.00.
`O=C1N[C@@H](c2cncc(C#Cc3ccccc3)c2)[C@H](c2cccc(Cl)c2Cl)O1` (single isomer, unassigned) [Example 329] showed a pEC50 of under 6.00.
For `O=C1N[C@H](c2cncc(C#Cc3ccccc3)c2)[C@H](c2cccc(Cl)c2Cl)O1` (single isomer, unassigned) [Example 331], the pEC50 was under 6.00.
For `C[C@]1(c2cncc(C#Cc3ccccc3)c2)NC(=O)O[C@@H]1c1cc(F)ccc1F` (single isomer, unassigned) [Example 407], the pEC50 was over 7.00.
Compound `O=C1N[C@H](c2cc(C#Cc3cccnc3)cnc2F)[C@@H](c2ccc(C(F)(F)F)cc2)O1` [Example 145, (4R,5R)-4-(2-Fluoro-5-(pyridin-3-ylethynyl)pyridin-3-yl)-5-(4-(trifluoromethyl)phenyl)oxazolidin-2-one] has a pEC50 of over 7.00.
Work on `O=C1N[C@H](c2cc(C#Cc3ccccc3)cnc2F)[C@@H](c2cccc(F)c2)O1` [Example 299, (4R,5R)-4-(2-Fluoro-5-(phenylethynyl)pyridin-3-yl)-5-(3-fluorophenyl)oxazolidin-2-one] yielded a pEC50 of over 7.00.
Compound `O=C1N[C@H](c2cncc(C#Cc3ccccc3)c2)[C@@H](c2ccncn2)O1` (single isomer, unassigned) [Example 318] has a pEC50 of over 7.00.
Compound `O=C1N[C@@H](c2cc(C#Cc3ccc(F)cc3)ccn2)[C@H](c2ccc(F)cc2)O1` (single isomer, unassigned) [Example 358] has a pEC50 of under 6.00.
`O=C1N[C@H](c2cncc(C#Cc3ccccc3)c2)[C@@H](c2c(F)cccc2F)O1` [Example 278] gave a pEC50 of under 6.00.
In the case of `O=C1N[C@@H](c2cncc(C#Cc3ccccn3)c2)[C@H](c2cc(F)cc(F)c2)O1` [Example 191], the pEC50 was under 6.00.
`O=C1N[C@@H](c2cccc(C#Cc3ccccc3)n2)[C@H](c2cc(F)cc(F)c2)O1` (single isomer, unassigned) [Example 316] showed a pEC50 of under 6.00.
For `COc1ccccc1[C@H]1OC(=O)N[C@H]1c1cncc(C#Cc2ccccc2)c1` (single isomer, unassigned) [Example 336], the pEC50 was under 6.00.
With `O=C1N[C@H](c2cccc(C#Cc3cccnc3)c2)[C@H](c2cnccn2)O1` [Example 251] the pEC50 was under 6.00.
`O=C1N[C@H](c2cncc(C#Cc3cnccn3)c2)[C@@H](c2c(F)cc(F)cc2F)O1` [Example 295] gave a pEC50 of under 6.00.
Compound `O=C1N[C@H](c2cc(C#Cc3cncc(F)c3)cnc2F)[C@@H](c2ccc(F)cc2)O1` [Example 143, (4R,5R)-4-(2-Fluoro-5-((5-fluoropyridin-3-yl)ethynyl)pyridin-3-yl)-5-(4-fluorophenyl)oxazolidin-2-one] has a pEC50 of over 7.00.
`COc1ccccc1[C@H]1OC(=O)N[C@@H]1c1cncc(C#Cc2ccccc2)c1` (single isomer, unassigned) [Example 334] showed a pEC50 of under 5.52.
`O=C1N[C@@H](c2cncc(C#Cc3cccnc3)c2)[C@H](c2ccc(F)cc2)O1` (single isomer, unassigned) [Example 42] was tested, and the pEC50 was under 6.00.
With `COc1cccc([C@H]2OC(=O)N[C@@H]2c2cccc(C#Cc3cccnc3)c2)c1` [Example 46] the pEC50 was over 7.00.
In the case of `O=C1N[C@H](c2cncc(C#Cc3ccccc3)c2)[C@@H](c2cccc(Cl)c2)O1` (single isomer, unassigned) [Example 362], the pEC50 was over 7.00.
Compound `C[C@]1(c2ccc(F)cc2)OC(=O)N[C@@H]1c1cncc(C#Cc2cncc(F)c2)c1` [Example 208] has a pEC50 of over 7.00.
In the case of `O=C1N[C@H](c2cc(C#Cc3ccccc3)cnc2F)[C@@H](c2cc(F)ccc2F)O1` [Example 302], the pEC50 was over 7.00.
Compound `N#Cc1ccc(C#Cc2cncc([C@H]3NC(=O)O[C@@H]3c3cc(F)ccc3F)c2)cc1` [Example 391, 4-((5-((4R,5R)-5-(2,5-difluorophenyl)-2-oxooxazolidin-4-yl)pyridin-3-yl)ethynyl)benzonitrile] has a pEC50 of under 6.00.
`O=C1N[C@@H](c2cccc(C#Cc3ccccc3)n2)[C@H](c2ccccc2F)O1` (single isomer, unassigned) [Example 308] gave a pEC50 of under 6.00.
For `O=C1N[C@H](c2cncc(C#Cc3cncnc3)c2)[C@@H](c2cc(F)ccc2F)O1` [Example 395, (4R,5R)-5-(2,5-difluorophenyl)-4-(5-(pyrimidin-5-ylethynyl)pyridin-3-yl)oxazolidin-2-one], the pEC50 was 6.00 to 7.00.
Compound `O=C1N[C@H](c2cc(C#Cc3ccnc(F)c3)cnc2F)[C@@H](c2cccc(F)c2)O1` [Example 141, (4R,5R)-4-(2-Fluoro-5-((2-fluoropyridin-4-yl)ethynyl)pyridin-3-yl)-5-(3-fluorophenyl)oxazolidin-2-one] has a pEC50 of over 7.00.
For `O=C1N[C@H](c2cccc(C#Cc3ccccc3)c2)[C@@H](c2ccccc2F)O1` [Example 109, (4R,5R)-5-(2-fluorophenyl)-4-(3-(phenylethynyl)phenyl)oxazolidin-2-one], the pEC50 was over 7.00.
`C[C@@]1(c2cncc(C#Cc3ccccc3)c2)NC(=O)O[C@H]1c1ccc(F)cc1` [Example 220] was tested, and the pEC50 was 6.00 to 7.00.
Compound `COc1cccc([C@H]2OC(=O)N[C@@H]2c2cccc(C#Cc3cncc(C)c3)c2)c1` [Example 86, (4R,5R)-5-(3-Methoxyphenyl)-4-(3-((5-methylpyridin-3-yl)ethynyl)phenyl)oxazolidin-2-one] has a pEC50 of over 7.00.
`O=C1N[C@@H](c2cccc(C#Cc3ccccc3)c2)[C@H](c2nc(-c3ccncc3)no2)O1` [Example 161] showed a pEC50 of under 6.00.
`C[C@]1(c2cncc(C#Cc3ccccc3)c2)NC(=O)O[C@@H]1c1ccccc1` (single isomer, unassigned) [Example 138] was tested, and the pEC50 was > 7.00 and 9.37.
Compound `COc1cccc([C@@H]2OC(=O)N[C@H]2c2ccnc(C#Cc3ccccc3)c2)c1` (single isomer, unassigned) [Example 37] has a pEC50 of over 7.00.
`C[C@]1(c2cncc(C#Cc3ncccc3F)c2)NC(=O)O[C@@H]1c1ccccc1` [Example 229] was tested, and the pEC50 was over 7.00.
For `COc1cccc([C@H]2OC(=O)N[C@@H]2c2cccc(C#Cc3ccccc3N)c2)c1` [Example 265], the pEC50 was 6.00 to 7.00.
For `O=C1N[C@H](c2cccc(C#Cc3ccccc3)c2)[C@@H](c2nc(-c3ccccc3)no2)O1` [Example 158], the pEC50 was under 4.52.
With `O=C1N[C@H](c2cccc(C#Cc3ccccn3)c2)[C@@H](c2ccncc2)O1` [Example 233] the pEC50 was over 7.00.
With `O=C1N[C@H](c2cc(C#Cc3cncc(F)c3)ncc2F)[C@@H](c2ccc(F)cc2)O1` [Example 144, (4R,5R)-4-(5-Fluoro-2-((5-fluoropyridin-3-yl)ethynyl)pyridin-4-yl)-5-(4-fluorophenyl)oxazolidin-2-one] the pEC50 was over 7.00.
